The text below walks through data of paper PMC4527344 (Tetrahedron letters, 2015).

In the test the test system is M. tuberculosis.

As for `CCOC(=O)CSc1nc(N)c2c3c(sc2n1)CC(C(C)(C)C)CC3` (stereo not shown) [CD117], the CD117-resistant mutants obtained entry is “unable to obtain CD117-resistant mutants”.
